The series relates to Caco-2 bidirectional permeability, LC-MS/MS efflux ratio. In words: Enhancers of SMN2 Splice Variant Expression: Efflux Ratio Profiling. Conditions: active compounds read low. An excerpt: Spinal muscular atrophy (SMA) is caused by insufficient levels of the survival motor neuron protein SMN. The SMN locus on chromosome 5q13 contains two inverted copies of SMN called SMN1 and SMN2 which are 99% identical at the amino acid level. SMN1 is a fully functional protein and SMN2 skips exon 7 90% of the time. Skipping of exon 7 produces non-functional protein product. 10% of the SMN2 protein includes exon 7 and is fully functional. In the SMA disease state, mutations in the SMN1 locus are the cause of the disease state. Because only 10% of SMN2 is of the fully functional form, it is not sufficient to overcome the deficiency produced by the loss of the SMN1 product. A therapy that either increase the amount of SMN2 product made or to increase the inclusion of exon 7 has been proposed for the treatment of SMA. After screening and medicinal chemistry efforts a probe was identified and is further characterized in this in vitro ADME assay. This bioassays provides profiling data on Caco-2 cell permeability of leads compounds developed for the HPGD project. […]
Prepare 1M HEPES: add 23.83g HEPES to 100ml of 0.85% NaCl Prepare HBSS+ buffer: add 12.8ml of 1M HEPES in 0.85% NaCl to 500ml HBSS buffer. […] The T0, LY and T90, LY plates are read by FlexStation 3 at excitation of 485 nm and emission of 535 nm to determine LY permeability. […]

Among the data in PubChem BioAssay AID504779 (National Center for Advancing Translational Sciences (NCATS), 2011) are efflux ratio values, retold here.

SMILES strings stand for the structures.

For `O=C(O)C1CCN(c2nc(-c3ccc(Br)cc3)cs2)CC1`, the efflux ratio (usually the permeability from basolateral to apical divided by that in the opposite direction, in the common usage) is 0.4.
